The values below come from patent US11478550B2, “Biodegradable hydrogel and methods for use thereof” (International Business Machines Corporation, priority 2018, dated 2022).

SMILES strings stand for the structures. Read-outs that look alike come from different tables or passages of the source.

Data set [1] concerns Human multiple myeloma (MM.1S) cells. Nature of the data set: Cytotoxicity test (CellTiter 96 AQueous One). Conditions: 48 h, alone or combined with the hydrogels (FIG. 2). It is filed as cell-based. Here is the method: Human multiple myeloma (MM.1S) cells were seeded at a density of 10×10^3 cells per well onto a 96 well plate and incubated overnight at 37° C. On the day of treatment, the medium was removed and 90 μl of RPMI was added to each well. Following this, 10 μL of the hydrogels or micelles-containing hydrogels were added to the cells. The plate was then incubated for another 48 h at 37° C. Reagents from the CellTiter 96® AQueous One Solution Cell Proliferation Assay Kit (Promega, USA) and RPMI were then mixed at a volume ratio of 1:4 and 100 μL of this mixture was then added to each well and the cells were left to incubate in the dark at 37° C. for 2 h. Untreated cells were then used as the control. Subsequently, the absorbance at 490 nm was measured and the readings were then expressed as a percentage of the cell viability of the control.

Data set [2] has as its system refractory and/or relapsed MM. The settings on record: single agent; cited from earlier work.
For data set [3] the following is noted: cited from earlier work.

In the case of `CC(C)C[C@H](NC(=O)[C@H](Cc1ccccc1)NC(=O)c1cnccn1)B(O)O` [BTZ, bortezomib], the “effect on cell viability” value in data set [1] is given as “marked effect on cell viability”. For the same compound, in data set [2], the “1-year overall survival rate” value is recorded as 80% and the “longer median time to progression compared to dexamethasone” value is 78%. Besides, the “time to reach mean maximum plasma concentration” value in data set [3] (intravenous bolus) is on record as 3 min. The “time to reach mean maximum plasma concentration” value in data set [3] (subcutaneous administration) is 120 min.
